According to article PMC10584170, “Machine learning-based phenotypic imaging to characterise the targetable biology of Plasmodium falciparum male gametocytes for the development of transmission-blocking antimalarials” (PLOS Pathogens, 2023):
Like-named read-outs stand apart in the source and are kept apart here.

Columns and labels:
HepG2 cells = test: HepG2 cytotoxicity counter-screen; conditions: cytotoxic activity against HepG2 cells
[1] = system: P. falciparum female gametocytes; test: P. falciparum Dual Gamete Formation Assay (PfDGFA), female readout (Pfs25-positive female gametes); format: cell-based, Plasmodium falciparum NF54; conditions: for Selectivity ratio F: HepG2 Tox50 versus female IC50; for inhibition at 2 µM / Average inhibition female (%) / % inhibition female (individual replicates) R1 / % inhibition female (individual replicates) R3 / % inhibition female (individual replicates) R4: 24h preincubation with gametocytes; for IC50: PfDGFA, 24 h incubation with gametocytes before induction, female gamete readout, read-out: Female IC50; for HitlevelF: number of replicates with >50% inhibition in the female readout
Procedure, shortened: (§1)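 Two sex-specific readouts come from one well: male exflagellation centres recorded by brightfield video right after activation, and female gametes scored by Cy3-anti-Pfs25 fluorescence after 24 h at 28°C.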

[2] = system: P. falciparum male gametocytes; test: P. falciparum Dual Gamete Formation Assay (PfDGFA), male readout (exflagellation); format: cell-based, Plasmodium falciparum NF54; conditions: for Selectivity Ratio M: HepG2 Tox50 versus male IC50; for inhibition at 2 µM / Average inhibition male (%) / % inhibition male (individual replicates) R1 / % inhibition male (individual replicates) R3 / % inhibition male (individual replicates) R4: 24h preincubation with gametocytes; for IC50: PfDGFA, 24 h incubation with gametocytes before induction, exflagellation readout, read-out: Male IC50; for HitlevelM: number of replicates with >50% inhibition in the male readout
Procedure, shortened: as §1

[3] = Plasmodium falciparum, 2µM, average of replicates, read-out: Average inhibition female (%)
[4] = Plasmodium falciparum, 2µM, replicate R1, read-out: % inhibition female (individual replicates) R1
[5] = Plasmodium falciparum, 2µM, replicate R2, read-out: % inhibition female (individual replicates) R2
[6] = Plasmodium falciparum, 2µM, replicate R3, read-out: % inhibition female (individual replicates) R3
[7] = Plasmodium falciparum, 2µM, replicate R4, read-out: % inhibition female (individual replicates) R4
[8] = Plasmodium falciparum, 2µM, average of replicates, read-out: Average inhibition male (%)
[9] = Plasmodium falciparum, 2µM, replicate R1, read-out: % inhibition male (individual replicates) R1
[10] = Plasmodium falciparum, 2µM, replicate R2, read-out: % inhibition male (individual replicates) R2
[11] = Plasmodium falciparum, 2µM, replicate R4, read-out: % inhibition male (individual replicates) R4
[12] = PfDGFA at 2µM, average of replicates

SMILES | Tox50 (HepG2 cells) [µM] | Selectivity ratio F [1] | Selectivity Ratio M [2] | Average inhibition female (%) [1, 12] [%] | % inhibition female (individual replicates) R1 ([1]; PfDGFA at 2µM, replicate R1) [%] | % inhibition female (individual replicates) R3 ([1]; PfDGFA at 2µM, replicate R3) [%] | % inhibition female (individual replicates) R4 ([1]; PfDGFA at 2µM, replicate R4) [%] | IC50 [1] [µM] | HitlevelF ([1]; 2µM) | Average inhibition male (%) [2, 12] [%] | % inhibition male (individual replicates) R1 ([2]; PfDGFA at 2µM, replicate R1) [%] | % inhibition male (individual replicates) R3 ([2]; PfDGFA at 2µM, replicate R3) [%] | % inhibition male (individual replicates) R4 ([2]; PfDGFA at 2µM, replicate R4) [%] | IC50 [2] [µM] | HitlevelM ([2]; 2µM) | Average inhibition female (%) ([1]; 2µM, average of replicates) | % inhibition female (individual replicates) R1 ([1]; 2µM, replicate R1) [%] | % inhibition female (individual replicates) R3 ([1]; 2µM, replicate R3) [%] | % inhibition female (individual replicates) R4 ([1]; 2µM, replicate R4) [%] | Average inhibition male (%) ([2]; 2µM, average of replicates) | also measured
Br.c1cc(C2=NC3CCCCC3N2)ccc1OCCCOc1ccc(C2=NC3CCCCC3N2)cc1 (stereo not shown) [TCMDC-137803] | 36.78 | 3.68 | 32.57 |  |  |  |  |  |  |  |  |  |  |  |  |  |  |  |  |  | inhibition at 2 µM [1, 3]: 39.4%; inhibition at 2 µM [1, 4]: 33.6%; inhibition at 2 µM [1, 5]: 49.2%; inhibition at 2 µM [1, 6]: 5.9%; inhibition at 2 µM [1, 7]: 68.9%; IC50 ([1]; Plasmodium falciparum): > 10 µM; inhibition at 2 µM [2, 8]: 96.1%; inhibition at 2 µM [2, 9]: 93.1%; inhibition at 2 µM [2, 10]: 96.3%; inhibition at 2 µM ([2]; Plasmodium falciparum, 2µM, replicate R3, read-out: % inhibition male (individual replicates) R3): 92.1%; inhibition at 2 µM [2, 11]: 103%; IC50 ([2]; Plasmodium falciparum): 1.13 µM
Nc1nc(N)c2c(ccc3c2ccn3Cc2ccc3c(c2)OCO3)n1 [TCMDC-137808] | 0.15 | 0.18 | 0.19 | 83.7 | 77.5 | 80.4 | 88.7 | 0.84 | 4 | 70.0 | 66.3 | 77.8 | 76.3 | 0.76 | 4 |  |  |  |  |  | 
Nc1nc(N)c2c(ccc3c2ccn3Cc2ccc(-c3ccccc3)cc2)n1 [TCMDC-137813] | 0.46 | 0.44 | 0.97 | 90.5 | 93.6 | 92.9 | 90.8 | 1.03 | 4 | 70.1 | 91.2 | 64.2 | 76.3 | 0.47 | 3 |  |  |  |  |  | 
C#CCCOc1ccc2ccccc2c1CNCCCCCCNCc1c(OCCC#C)ccc2ccccc12 [TCMDC-137832] | 3.94 | 1.37 | 2.13 | 22.9 | 24.2 | 11.7 | 20.0 | 2.88 | 0 | 78.9 | 82.1 | 58.7 | 86.2 | 1.85 | 4 |  |  |  |  |  | 
CS(=O)(=O)O.FC(F)(F)COc1c(CNCCCCCCNCc2ccc3ccccc3c2OCC(F)(F)F)ccc2ccccc12 [TCMDC-137833] | 3.32 | 0.51 | 1.9 | 29.5 | 27.4 | 10.4 | 40.2 | 6.57 | 0 | 69.2 | 70.5 | 47.4 | 77.6 | 1.75 | 3 |  |  |  |  |  | 
CS(=O)(=O)O.c1ccc2c(CNCCCCCCNCc3c(OCC4CC4)ccc4ccccc34)c(OCC3CC3)ccc2c1 [TCMDC-137839] | 3.2 | 1.36 | 2.29 |  |  |  |  | 2.36 |  |  |  |  |  | 1.4 |  | 78.7 | 59.7 | 91.2 | 88.3 | 95.2 | % inhibition male (individual replicates) R1 ([2]; 2µM, replicate R1): 96.4%; % inhibition male (individual replicates) R3 ([2]; 2µM, replicate R3): 98.9%; % inhibition male (individual replicates) R4 ([2]; 2µM, replicate R4): 103.0%
Nc1nc(N)c2c(ccc3[nH]c(-c4ccccc4Cl)nc32)n1 [TCMDC-137840] | 2.04 | 0.88 | 2.01 |  |  |  |  | 2.32 |  |  |  |  |  | 1.02 |  | 54.2 | 66.8 | 50.3 | 52.5 | 99.1 | % inhibition male (individual replicates) R1 ([2]; 2µM, replicate R1): 101.1%; % inhibition male (individual replicates) R3 ([2]; 2µM, replicate R3): 94.6%; % inhibition male (individual replicates) R4 ([2]; 2µM, replicate R4): 101.3%
COc1cc2ccccc2c(OC)c1CNCCCCCCNCc1c(OC)cc2ccccc2c1OC.CS(=O)(=O)O [TCMDC-137843] | 3.59 | 0.88 | 2.16 | 38.4 | 31.9 | 18.8 | 37.8 | 4.09 | 1 | 82.6 | 82.1 | 58.2 | 98.9 | 1.66 | 4 |  |  |  |  |  | 
CCCCOc1c(CCNCCCCNCCc2cc(OC)c3ccccc3c2OCCCC)cc(OC)c2ccccc12.CS(=O)(=O)O [TCMDC-137848] | 3.16 | 2.45 | 2.01 | 42.4 | 32.5 | 23.0 | 45.3 | 1.29 | 1 | 82.6 | 89.8 | 50.4 | 92.9 | 1.57 | 4 |  |  |  |  |  | 
CS(=O)(=O)O.FC(F)(F)COc1ccc(CNCCCCCCNCc2ccc(OCC(F)(F)F)c3ccccc23)c2ccccc12 [TCMDC-137853] | 1.26 | 2.44 | 4.06 |  |  |  |  | 0.52 |  |  |  |  |  | 0.31 |  | 50.4 | 38.4 | 35.3 | 42.3 | 98.2 | % inhibition male (individual replicates) R1 ([2]; 2µM, replicate R1): 97.9%; % inhibition male (individual replicates) R3 ([2]; 2µM, replicate R3): 96.8%; % inhibition male (individual replicates) R4 ([2]; 2µM, replicate R4): 101.6%
COc1c(CCNCCCCNCCc2cc(Cl)c3ccccc3c2OC)cc(Cl)c2ccccc12.CS(=O)(=O)O [TCMDC-137869] | 2.99 | 2.39 | 3.25 |  |  |  |  | 1.25 |  |  |  |  |  | 0.92 |  | 93.4 | 93.5 | 100.2 | 88.2 | 96.4 | % inhibition male (individual replicates) R1 ([2]; 2µM, replicate R1): 99.7%; % inhibition male (individual replicates) R3 ([2]; 2µM, replicate R3): 90.8%; % inhibition male (individual replicates) R4 ([2]; 2µM, replicate R4): 101.9%
Oc1cccc(CNCCCN(Cc2ccccc2)c2ccccc2)c1 [TCMDC-137875] | 13.84 | 1.79 | 13 |  |  |  |  |  |  |  |  |  |  |  |  |  |  |  |  |  | inhibition at 2 µM [1, 3]: 33.5%; inhibition at 2 µM [1, 4]: 43.5%; inhibition at 2 µM [1, 5]: 32%; inhibition at 2 µM [1, 6]: 28.3%; inhibition at 2 µM [1, 7]: 30.2%; IC50 ([1]; Plasmodium falciparum): 7.74 µM; inhibition at 2 µM [2, 8]: 97.7%; inhibition at 2 µM [2, 9]: 96.8%; inhibition at 2 µM [2, 10]: 93.7%; inhibition at 2 µM [2, 11]: 103%; IC50 ([2]; Plasmodium falciparum): 1.06 µM
CC(=NNC(=S)NCCc1ccccn1)c1ccccn1 [TCMDC-137895] | 1.15 | 2.26 | 2.92 |  |  |  |  | 0.51 |  |  |  |  |  | 0.39 |  | 79.8 | 58.7 | 98.6 | 74.6 | 93.4 | % inhibition male (individual replicates) R1 ([2]; 2µM, replicate R1): 86.5%; % inhibition male (individual replicates) R3 ([2]; 2µM, replicate R3): 96.2%; % inhibition male (individual replicates) R4 ([2]; 2µM, replicate R4): 94.6%
